According to patent US20120283269A1, “Method and Compositions for Suppression of Aging” (HEALTH RESEARCH INC., priority 2009, published 2012):

Assays:
Type in all cases: cell-based, human
HT-p21-9 cells [1] = assay: Colony formation / proliferative potential after drug removal, HT-p21-9 cells
Procedure: FIG. 1. Nutlin-3a converted senescence into quiescence. a. […] Cells were stained for beta-Gal and photographed (original magnification ×400). Bar scale—50 μm. b. […] Then cells were cultured in fresh medium until colonies become visible. Dishes were stained with crystal violet and photographed on day 4 (control) or on day 9 (IPTG- and nutlin-3a-treated).c. […] Before wash. Live HT-p21-9 cells (expressing GFP for better visualization of live cells) were photographed (original magnification ×100) under blue light. 3 d wash. Three days after drug removal. 9 d wash. Nine days after drug removal, cells were stained with crystal violet and photographed. d. Nutlin-3a dose response. […] After 3 days, the plates were washed and cells were incubated for an additional 9 days in fresh medium, stained with crystal violet and photographed. e. Colonies per dish. […] After 3 days, the plates were washed and cells were incubated for an additional 9 days in fresh medium. Colonies were counted and results are shown as percent of control (IPTG alone). f. Cells per dish. As in panel e. Cells were trypsinized and counted. Results are shown as percent of control (IPTG alone).
(§1) FIG. 3. […] Immunoblot. […] Immunoblot was performed as described in the methods for Example 1 below. b. Immunoblot. […] Immunoblot was performed as described in Methods. c. […] After 3 days, cells were washed and incubated in fresh medium w/o drugs for an additional 7 days. Cells were counted and are shown as percent of IPTG alone. d. […] Cells were treated with either IPTG alone (black bars) or IPTG plus rapamycin (white bars) or plus nutlin-3a (grey bars). On days 2, 3, 4, and 5 cells were lysed and protein content per well was measured. […] Cells were labeled with [^35S]methionine/cysteine as described in Methods for Example 1.
FIG. 6. […] Nine days after drug removal. a. Cell number per dish. Cells per dish were counted. b. Cell number per a colony. Number of cells per colony was calculated. A number of cells per colony was 200-250 (approximately equals to 8 divisions) by day 9.
Cell lines and reagents. HT-p21-9 and HT-p21-a cells are derivatives of HT1080 human fibrosarcoma cells, where p21 expression can be turned on or off using isopropyl-thio-galactosidase (IPTG) (7, 16, 28, 29, 36). […] HT-p16 cells are derivatives of HT1080 cells in which p16 expression can be turned on or off using IPTG (16, 36). WI-38-Tert, WI-38 are fibroblasts immortalized by telomerase. HT-p21-GSE56 cells: p53 inhibiting peptide GSE56 (18) was introduced into HT1080 p21-9 cells via a retroviral vector LXSE (37). Cells were grown in high glucose DMEM with 10% FC2 serum. WI-38-tert cells were grown in low glucose DMEM with 10% FCS. Rapamycin was obtained from LC Laboratories (Woburn, Mass.). IPTG (final concentration of 50 μg/ml) and FC2 were obtained from Sigma-Aldrich (St. Louis, Mo.).
Colony formation assay. Plates were fixed and stained with 1.0% methylene blue or with crystal violet (13).

mTOR pathway [2] = assay: Immunoblot for mTOR pathway (p-S6, p-4E-BP1, cyclin D1) in HT-p21 cells
Procedure: FIG. 3. […] Immunoblot. […] Immunoblot. […] Immunoblot was performed as described in Methods. c. […] After 3 days, cells were washed and incubated in fresh medium w/o drugs for an additional 7 days. […] On days 2, 3, 4, and 5 cells were lysed and protein content per well was measured.
Cell lines and reagents. […] WI-38-Tert, WI-38 are fibroblasts immortalized by telomerase. […] Cells were grown in high glucose DMEM with 10% FC2 serum. WI-38-tert cells were grown in low glucose DMEM with 10% FCS. Rapamycin was obtained from LC Laboratories (Woburn, Mass.). IPTG (final concentration of 50 μg/ml) and FC2 were obtained from Sigma-Aldrich (St. Louis, Mo.).

HT-p21-9 cells [3] = assay: Metabolic labeling, [35S]methionine/cysteine incorporation (protein synthesis); conditions: IPTG-treated cells, 24 h treatment
Procedure: as §1
FIG. 8. Effects of IPTG and 500 nM rapamycin on protein synthesis ([^35S]methionine/cysteine incorporation). Cells were treated as indicated for 24 hrs and then labeled with [^35S]methionine/cysteine as described in Methods for Example 1.
Metabolic labeling. HT-p21-9 cells were seeded at 25,000 cells/well in 12-well plates. On the next day, cells were treated with drugs. After 24 h, cells were labeled with 30 μCi [^35S]methionine/cysteine (Amersham) per ml of Met/Cys-free Dulbecco's modified Eagle's medium (Invitrogen) for 1 h at 37° C. Cells were washed with PBS and lysed in 1% SDS, with 0.5% BSA. […] Filters were air-dried and counted using liquid scintillation counter.

mTOR pathway [4] = assay: Immunoblot for p53, p-S6, p-S6K in WI-38-tert fibroblasts
Procedure: FIG. 4. […] HT-p21-a cells were treated with IPTG and infected with Ad-p53. After 3 days, cells were photographed (original magnification ×200): Upper panel. Under blue light to visualize cells expressing p53 (green cells). Lower panel. Under visible light to visualize all cells. Red arrows indicate cells lacking p53 expression. All of these cells show large, flat cell morphology. Green arrows indicate cells expressing p53. b-d. […] After 1 day, cells were lysed and immunoblot was performed as described in Methods for Example 1. c. […] Cells were then stained for beta-Gal activity and microphotographed. Scale bar—50 μm.d. […] Cells were then trypsinized and counted. […] Results are shown as percent of control.
FIG. 12. […] Immunoblot for p53, p-S6, p-S6K, S6 and actin was performed as described in Methods for Example 1.
Immunoblot analysis. Proteins were separated on 4-15% gradient Tris-HCl gels (Bio-Rad). The following antibodies were used: mouse anti-actin from Santa Cruz Biotechnology, rabbit anti-phospho-S6 (Ser240/244) and (Ser235/236), mouse anti-S6, mouse anti-phospho-p70 S6 kinase (Thr389), mouse anti-p21 and anti-p53, rabbit anti-phospho-4E-BP1 (Thr37/46) from Cell Signaling; mouse anti-4E-BP1 from Invitrogen, mouse anti-p53 (Ab-6) from Calbiochem.

[5] = IPTG plus 10 μM nutlin-3a, 24 hr
[6] = 200 μM H2O2 30 min, then 10 μM nutlin-3a, 1 day

COc1ccc(C2=N[C@@H](c3ccc(Cl)cc3)[C@@H](c3ccc(Cl)cc3)N2C(=O)N2CCNC(=O)C2)c(OC(C)C)c1 [nutlin-3a]
proliferative potential and clonogenicity of IPTG-treated cells (HT-p21-9 cells [1]; IPTG plus nutlin-3a 3 days, washed, fresh medium): retained the proliferative potential and clonogenicity
number of cells per colony (HT-p21-9 cells [1]; IPTG+nutlin-3a 3 days, day 9 after drug removal): 200-250
potency in suppression of senescence (preservation of proliferative potential) (HT-p21-9 cells [1]; IPTG-treated HT-p21-9 cells): equally potent
reversibility of arrest (colony formation upon removal) (HT-p21-9 cells [1]; nutlin-3a alone 3 days, then washed): reversible arrest
further suppression of senescence by nutlin-3a in the presence of rapamycin (HT-p21-9 cells [1]; rapamycin (500 nM) at doses that completely inhibit mTOR): could not further suppress senescence
S6 phosphorylation (mTOR pathway [2]; [5]): inhibited S6 phosphorylation
phosphorylation of 4E-BP1 (mTOR pathway [2]; [5]): partially inhibited
cyclin D1 levels (mTOR pathway [2]; IPTG plus nutlin-3a): normalized elevated levels of cyclin D1
mTOR pathway (mTOR pathway [2]; presence or absence of IPTG, 18 hr): inhibited the mTOR pathway both in the presence and absence of IPTG
protein synthesis ([35S]methionine/cysteine incorporation) (HT-p21-9 cells [3]): inhibited ^35S-methionine/cysteine incorporation in IPTG-treated HT-p21-9 cells in a dose-dependent manner
S6 phosphorylation in H2O2-treated WI-38-tert cells (mTOR pathway [4]; [6]): inhibited S6 phosphorylation
p53 level in H2O2-treated WI-38-tert cells (mTOR pathway [4]; [6]): induced p53
S6K and S6 phosphorylation (mTOR pathway [4]; concentrations that induce p53, 24 hr): inhibited S6K and S6 phosphorylation
